Reference: publication PMC8819291, “Adaptively evolved human oral actinomyces‐sourced defensins show therapeutic potential” (EMBO Molecular Medicine, 2021)
Marks after values point to notes of the source that are not given here. Where a SMILES comes first, the peptide text is derived from it. Bridges are numbered along the chain shown (N, C = ends).

Tests used:
[1] = test system: Staphylococcus aureus J700; assay: Inhibition-zone assay (lethal concentration); type: cell-based; conditions: Broth Medium, 37°C
Description: (§1) Bacterial media used here included: Luria‐Bertani (LB) medium, THY medium (30 g Todd Hewitt broth and 5 g Yeast extract per liter), and tryptic soy broth (TSB) (Oxoid, Basingstoke, UK); Broth medium and brain–heart infusion (BHI) medium (Beijing Landbridge technology Limited by Share Ltd., Beijing, China); Potato dextrose (PD) medium (self‐prepared).
(§2) In brief, an overnight bacterial culture from a single colony was inoculated into fresh medium and grew to late log‐phase. A 10‐μl aliquot of each culture was diluted in 6‐ml pre‐heated medium containing 0.8% agar. The mixture was spread on a 9‐cm Petri dish, giving a depth of 1 mm. After settling, 3‐mm wells were punched in the plate and then 2‐μl peptide samples of different concentrations were added to each well. The agar plates were incubated overnight at indicated temperatures (Table EV4). A lethal concentration (C L ) was calculated from a plot of d^2 against log n, where d is the diameter (in cm) and n is the amount of sample applied in the well (in nmol). The plot is linear, and thus C L can be calculated from the slope (k) and the intercept (m) of this plot.

[2] = test system: Streptococcus pneumoniae R6; assay: Inhibition-zone assay (lethal concentration); type: cell-based; conditions: THY, 5% CO2, 37°C
Description: as §1, §2

[3] = test system: Staphylococcus aureus J685; assay: Inhibition-zone assay (lethal concentration); type: cell-based; conditions: Broth Medium, 37°C
Description: as §1, §2

[4] = test system: Streptococcus salivarius CGMCC 1.2498 (ATCC 7073); assay: Inhibition-zone assay (lethal concentration); type: cell-based; conditions: Broth Medium, 37°C
Description: as §1, §2

[5] = test system: penicillin‐sensitive Staphylococcus epidermidis P1111; assay: Inhibition-zone assay (lethal concentration); type: cell-based; conditions: Broth Medium, 37°C
Description: as §1, §2

[6] = test system: Streptomyces scabiei CGMCC 4.1765 (ATCC 49173); assay: Inhibition-zone assay (lethal concentration); type: cell-based; conditions: Tryptone Soy Broth (TSB), 30°C
Description: as §1, §2

[7] = test system: Streptococcus pneumoniae TIGR4; assay: Inhibition-zone assay (lethal concentration); type: cell-based; conditions: THY, 5% CO2, 37°C
Description: as §1, §2

[8] = test system: Staphylococcus aureus J698; assay: Inhibition-zone assay (lethal concentration); type: cell-based; conditions: Broth Medium, 37°C
Description: as §1, §2

[9] = test system: Streptococcus pneumoniae ST556 (StrR); assay: Inhibition-zone assay (lethal concentration); type: cell-based; conditions: streptomycin‐resistant strain; THY, 5% CO2, 37°C
Description: as §1, §2

[10] = test system: Streptococcus mutans CGMCC 1.2499 (ATCC 25175); assay: Inhibition-zone assay (lethal concentration); type: cell-based; conditions: Broth Medium, 37°C
Description: as §1, §2

[11] = test system: Staphylococcus aureus CGMCC 1.89; assay: Inhibition-zone assay (lethal concentration); type: cell-based; conditions: Broth Medium, 37°C
Description: as §1, §2

[12] = test system: Staphylococcus aureus J708; assay: Inhibition-zone assay (lethal concentration); type: cell-based; conditions: Broth Medium, 37°C
Description: as §1, §2

[13] = test system: penicillin‐resistant Staphylococcus aureus P1383; assay: Inhibition-zone assay (lethal concentration); type: cell-based; conditions: Broth Medium, 37°C
Description: as §1, §2

HL‐60 = assay: Cytotoxicity assay (CCK-8); type: cell-based, human; conditions: 72 h
Experimental: Cells were cultured at 37°C in 5% CO2: 95% air incubator in Minimum Essential Medium (MEM) supplemented with 10% (v/v) fetal bovine serum (FBS). Cells were seeded at a density of 7 × 10^3 cells per well in 96‐well plates and incubated for 24 h. Media were then replaced with 200 μl of media containing various concentrations of peptides. The cells were incubated for 72 h and cytotoxicity was assessed with CCK‐8 Kits (Dojindo Molecular Technologies, Tokyo, Japan). Absorbance was detected at 450 nm with the TECAN Infinite M200 microplate reader (Tecan, Durham, USA).

[14] = Stability in H2O (residual activity by inhibition-zone assay); type: physicochemical; conditions: 48‐h incubation in H2O at 37°C
gram‐positive bacteria = assay: Inhibition-zone assay, groups of strains; type: cell-based
Description: as §1, §2

[15] = Circular dichroism spectroscopy with UMP; type: binding; conditions: 50 mM NH4OAc, room temperature
Experimental: The spectra were measured at room temperature from 300 to 200 nm by using a quartz cell of 1.0 mm thickness. Data were collected at 1‐nm intervals with a scan rate of 2 nm/s.

MRSA P1374 = assay: Cytoplasmic accumulation of UMP; type: cell-based, Staphylococcus aureus; conditions: 20 × C L, 30 min; RP-HPLC, UV 260 nm
Experimental: To analyze the cytoplasmic nucleotide pool, we carried out the cytoplasmic UMP accumulation experiment according to the literature (Brötz et al, [1997]) with some modifications. MRSA P1374 cells were grown in 40‐ml broth medium at 37°C to an OD600 of 0.5. The culture was supplemented with 130 μg/ml chloramphenicol. […] After 30 min of incubation, UMP was extracted from the harvested cells by stirring them into boiling water. The suspension was then centrifuged (43,000 g, 60 min) at 4°C and the supernatant was lyophilized and dissolved in 400 μl of 50 mM ammonium acetate (pH 5.2) and adjusted to pH 2.0 with acetic acid. After acidification, the supernatant was fractionated by RP‐HPLC on Hypersil ODS (250 × 4.6 mm; Thermo Scientific) and UMP was eluted from the column with a linear gradient from 0 to 40% methanol in 50 mM NH4Ac (pH 5.2) within 40 min with a flow rate of 1 ml/min. UV absorbance was monitored at 260 nm. UMP was identified by ultraperformance liquid chromatography–high resolution mass spectrometry (UPLC‐HRMS) and MALDI‐TOF. Both methods yielded consistent results.

CC[C@H](C)[C@@H]1NC(=O)[C@H](CCCCN)NC(=O)CNC(=O)[C@H](CCCNC(=N)N)NC(=O)[C@@H]2CSSC[C@H](NC(=O)CNC(=O)[C@H](Cc3ccccc3)NC(=O)CN)C(=O)N3CCC[C@H]3C(=O)N[C@@H](Cc3c[nH]c4ccccc34)C(=O)N[C@@H](CC(N)=O)C(=O)N[C@@H](C)C(=O)N[C@@H](Cc3ccc(O)cc3)C(=O)N[C@@H](CCC(=O)O)C(=O)N[C@H]3CSSC[C@H](NC(=O)[C@H]([C@@H](C)O)NC(=O)[C@H](CCC(N)=O)NC(=O)[C@H](CCCNC(=N)N)NC1=O)C(=O)N[C@@H](Cc1c[nH]cn1)C(=O)N[C@H](C(=O)N[C@@H](Cc1ccc(O)cc1)C(=O)O)CSSC[C@H](NC(=O)[C@H](Cc1c[nH]cn1)NC(=O)[C@H](CCCNC(=N)N)NC(=O)[C@H](CC(=O)O)NC3=O)C(=O)N[C@@H](C(C)C)C(=O)N[C@@H](CO)C(=O)N[C@@H](CCCCN)C(=O)NCC(=O)N[C@@H](Cc1ccc(O)cc1)C(=O)N[C@@H]([C@@H](C)O)C(=O)NCC(=O)NCC(=O)N[C@@H](CC(N)=O)C(=O)N2 [AMSIN] (H-GFGCPWNAYECDRHCVSKGYTGGNCRGKIRQTCHCY-OH; disulfide 4-25, 11-33, 15-35; N-terminus and C-terminus assumed)
Lethal concentration (C L) [1]: 5.20 µM | Lethal concentration (C L) [2]: 0.14 µM | Lethal concentration (C L) [3]: 10.40 µM | Lethal concentration (C L) [4]: 0.49 µM | Lethal concentration (C L) [5]: 5.20 µM | Lethal concentration (C L) [6]: 2.01 µM | Lethal concentration (C L) [7]: 0.14 µM | Lethal concentration (C L) [8]: 5.20 µM | Lethal concentration (C L) [9]: < 0.14 µM | Lethal concentration (C L) ([10]; AMSIN alone): 1.01 µM | Lethal concentration (C L) ([10]; In combination with HNP1&2): 0.38 ^a µM | Lethal concentration (C L) ([10]; In combination with hLZc): 0.56 ^b µM | Lethal concentration (C L) [11]: 5.20 µM | Lethal concentration (C L) [12]: 1.14 µM | Lethal concentration (C L) [13]: 4.28 µM | Cellular variability of HL-60 (%) (HL‐60; 25 μg/mL, replicate 1): 97% | Cellular variability of HL-60 (%) (HL‐60; 25 μg/mL, replicate 2): 101% | Cellular variability of HL-60 (%) (HL‐60; 25 μg/mL, replicate 3): 108% | Cellular variability of HL-60 (%) (HL‐60; 50 μg/mL, replicate 1): 97% | Cellular variability of HL-60 (%) (HL‐60; 50 μg/mL, replicate 2): 100% | Cellular variability of HL-60 (%) (HL‐60; 50 μg/mL, replicate 3): 103% | Cellular variability of HL-60 (%) (HL‐60; 100 μg/mL, replicate 1): 97% | Cellular variability of HL-60 (%) (HL‐60; 100 μg/mL, replicate 2): 102% | Cellular variability of HL-60 (%) (HL‐60; 100 μg/mL, replicate 3): 106% | Residual antibacterial activity [14]: full antibacterial activity | Lethal concentrations (C L) (gram‐positive bacteria; SP (strains D39, R6, ST556, and TIGR4)): about 0.10 μM | C L (gram‐positive bacteria; three oral Streptococcus bacteria (S. mutans, S. salivarius, and S. sanguinis)): 0.5 to 1.4 µM | Complex with UMP by CD absorption signatures [15]: a complex was formed | Cytoplasmic accumulation of UMP (MRSA P1374): accumulated
